# Data as given in patent US20250376446A1, “[…] OF A […] CANNABINOID” (Jazz Pharmaceuticals Research UK Limited, priority 2022, published 2025).
# What was measured:
# [1] = tested on: mouse model of generalised seizure (tonic hind limb extensor convulsions); assay: Maximal electroshock seizure threshold (MEST) test in the mouse; settings: for % change from vehicle (CC50) / CC50 +/- SEM: 30 min post dose
# Method: The efficacy of compound 1 was tested in a mouse model of generalised seizure, the maximal electroshock seizure threshold (MEST) test.
# The maximal electroshock seizure threshold (MEST) test is widely utilized preclinically to evaluate pro-or anti-convulsant properties of test compounds (Loscher et al., 1991).
# In the MEST test the ability of a drug to alter the seizure threshold current required to induce hind limb tonic extensor convulsions is measured according to an “up and down” method of shock titration (Kimball et al., 1957). An increase in seizure threshold is indicative of anti-convulsant effect.
# The ability of a test compound to alter the stimulus intensity, expressed as current (mA), required to induce the presence of tonic hind limb extensor convulsions, is assessed in the MEST.
# Naïve mice were acclimatised to the procedure room in their home cages for up to 7 days, with food and water available ad libitum.
# All animals were weighed at the beginning of the study and randomly assigned to treatment groups based on a mean distribution of body weight across groups.
# The first animal within a treatment group was given a shock at the expected or estimated CC50 current. For subsequent animals, the current was lowered or raised depending on the convulsions outcome from the preceding animal, in intervals of 5 mA.
# Data generated from each treatment group were used to calculate the CC50+SEM values for the treatment group.
# Vehicle: (5% ethanol, 10% solutol, 85% Saline) was prepared as follows: 1 mL of ethanol, 2 mL of solutol were warmed to 60° C., in 17 mL of saline (1:2:17).
# The test compound (compound 1) was administered at 2, 20 and 200 mg/kg (i.p.) in a 1:2:17 ethanol: solutol: 0.9% saline formulation.
# The data for each treatment group were recorded as the number of +'s and 0's at each current level employed and this information is then used to calculate the CC50 value (current required for 50% of the animals to show seizure behaviour)±standard error.
# Test compound effects were also calculated as percentage change in CC50 from the vehicle control group.
# Significant difference between drug-treated animals and controls were assessed according to Litchfield and Wilcoxon (1949).
# [2] = Stability of Form B to milling (ball mill, XRPD); type: physicochemical; settings: no solvent, mill at 25 Hz, 3 x 2 mins; for Output Form (milling experiment): XRPD
# Method: A ball mill was used to mimic the effects of grinding that would be experienced during formulation steps such as dry blending and wet granulation. Form B (50 mg) was added to a milling chamber with an agate milling ball. Using a Retsch MM200 mixer mill, the material was milled for 6-10 minutes at a frequency of 25 Hz. Periodically, the milling was stopped and powder that adhered to the milling chamber was scraped down. The resultant milled material was analysed using XRPD.
# [3] = Stability of Form B to humidity stress (XRPD); type: physicochemical; settings: 40° C./75% RH for 8 days
# Method: Form B material was exposed to high humidity conditions to determine stability on storage. Approximately 20 mg of Form B material was added to a vial and placed unsealed into a sealed cabinet with a relative humidity of 75% (controlled by a super-saturated salt solution) and a temperature of 40° C. for 8 days. The resultant material was analysed by XRPD.
# [4] = Stability of Form B to compression (die press, XRPD); type: physicochemical; settings: compression @ 370 MPa for 24 hrs; for Output Form (compression experiment): XRPD
# Method: A die press was used to mimic the uniaxial stress experienced during formulation steps such as tableting. Form B (50 mg) was added to a KBr pellet die and compressed overnight at ˜370 MPa using a hydraulic press. The resultant solid disc was removed from the press and immediately analysed by XRPD.
# [5] = Retest of Form C after storage at ambient conditions; type: physicochemical; settings: 6 days storage at ambient conditions
smiles,measurement,setting,value
"C=C(C)[C@@H]1CCC(C)=C[C@H]1c1c(O)cc(-c2cnn(C)c2)cc1O [Compound 1, (1′R,2′R)-5′-methyl-4-(1-methyl-1H-pyrazol-4-yl)-2′-(prop-1-en-2-yl)-1′,2′,3′,4′-tetrahydro-[1,1′-biphenyl]-2,6-diol]",% change from vehicle (CC50),"[1]; i.p., 2 mg/kg",27%
same,CC50 +/- SEM,"[1]; i.p., 2 mg/kg",30.8 ± 1.0 mA
same,% change from vehicle (CC50),"[1]; i.p., 20 mg/kg",116%
same,CC50 +/- SEM,"[1]; i.p., 20 mg/kg",52.5 ± 1.3 mA
same,% change from vehicle (CC50),"[1]; i.p., 200 mg/kg",712%
same,CC50 +/- SEM,"[1]; i.p., 200 mg/kg",197.5 ± 20.4 mA
same,Effect on MEST (in words),"[1]; i.p., 2, 20 and 200 mg/kg",dose-related increase in MEST
same,CC50 value compared to vehicle (in words),"[1]; i.p., 30 minutes before the test, all three doses (2, 20, 200 mg/kg)",statistically significant
"CN1C(=O)CN=C(c2ccccc2)c2cc(Cl)ccc21 [Diazepam, diazepam, reference compound]",% change from vehicle (CC50),"[1]; i.p., 2.5 mg/kg",223%
"C=C(C)[C@@H]1CCC(C)=C[C@H]1c1c(O)cc(-c2cnn(C)c2)cc1O [Form B, (1′R,2′R)-5′-methyl-4-(1-methyl-1H-pyrazol-4-yl)-2′-(prop-1-en-2-yl)-1′,2′,3′,4′-tetrahydro-[1,1′-biphenyl]-2,6-diol]",Result (milling experiment),[2],solid
same,Output Form (milling experiment),[2],did not undergo a change in form
same,Output Form (milling experiment),[2]; listed as B,B (disordered)
same,Result (humidity stress experiment),[3],solid
same,Output Form (humidity stress experiment),[3]; XRPD,stable to storage
same,Result (compression experiment),[4],solid
same,Output Form (compression experiment),[4],stable to compression
same,Output Form (compression experiment),[4]; listed as B,B (slight disorder)
"C=C(C)[C@@H]1CCC(C)=C[C@H]1c1c(O)cc(-c2cnn(C)c2)cc1O [Form C, (1′R,2′R)-5′-methyl-4-(1-methyl-1H-pyrazol-4-yl)-2′-(prop-1-en-2-yl)-1′,2′,3′,4′-tetrahydro-[1,1′-biphenyl]-2,6-diol]",Form after storage,[5],converted to a Form A
